From patent US5753650A, “Inhibitors of farnesyl-protein transferase” (Merck & Co., Inc., priority 1996, dated 1998)

Target: Farnesyl-protein transferase (FTase)
Test: In vitro inhibition of Ras farnesyl transferase (farnesylation of Ras-CVLS with [3H]FPP)
Assay type: biochemical
Conditions: Ras-CVLS 3.5 μM, [3H]FPP 0.25 μM; partially purified bovine or recombinant human enzyme; read-out: IC50 (concentration of the test compound which gives 50% inhibition of FTase)
Method: Farnesyl-protein transferase (FTase) from bovine brain was chromatographed on DEAE-Sephacel (Pharmacia, 0-0.8 M NaCl gradient elution), N-octyl agarose (Sigma, 0-0.6 M NaCl gradient elution), and a mono Q HPLC column (Pharmacia, 0-0.3 M NaCl gradient). Ras-CVLS at 3.5 μM, 0.25 μM [^3 H]FPP, and the indicated compounds were incubated with either a partially purified bovine enzyme preparation or a recombinant human enzyme preparation. The recombinant human enzyme was prepared as described in Omer, C. A., Kral, A. M., Diehl, R. E., Prendergast, G. C., Powers, S., Allen, C. M., Gibbs, J. B. and Kohl, N. E. (1993) Biochemistry 32:5167-5176. The FTase data presented below in Table 1 reflects the ability of the test compound to inhibit RAS farnesylation in vitro, as described in Pompliano, et al. Biochemistry 31:3800 (1992).
*(IC50 is the concentration of the test compound which gives 50%
inhibition of FTase under the described assay conditions)

Row | Compound | IC50
1 | 3-[N-2(S)-amino-3-mercaptopropionyl-N-methyl]amino-2,3-dihydro-2-oxo-5-phenyl-1H-1,4-benzodiazepine [1 - slower eluting isomer] | 110 nM
2 | CN(C(=O)[C@@H](N)CS)C1N=C(c2ccccc2)c2ccccc2NC1=O (single isomer, unassigned) [1 - faster eluting isomer] | 2600 nM
3 | N[C@@H](CS)C(=O)NC1N=C(c2ccccc2)c2ccccc2NC1=O (single isomer, unassigned) [2 - faster eluting isomer] | 1600 nM
4 | N[C@@H](CS)C(=O)NC1N=C(c2ccccc2)c2ccccc2NC1=O (single isomer, unassigned) [2 - slower eluting isomer] | 42000 nM
